Common to all, as to assay type: cell-based
Test [1] addresses T1, rP2RX7 (Rattus norvegicus, UniProt Q64663).
T1 construct: gene P2rx7; rat P2RX7 cDNA in Xenopus laevis oocytes; homotrimer
T1 sequence (Q64663 1-595): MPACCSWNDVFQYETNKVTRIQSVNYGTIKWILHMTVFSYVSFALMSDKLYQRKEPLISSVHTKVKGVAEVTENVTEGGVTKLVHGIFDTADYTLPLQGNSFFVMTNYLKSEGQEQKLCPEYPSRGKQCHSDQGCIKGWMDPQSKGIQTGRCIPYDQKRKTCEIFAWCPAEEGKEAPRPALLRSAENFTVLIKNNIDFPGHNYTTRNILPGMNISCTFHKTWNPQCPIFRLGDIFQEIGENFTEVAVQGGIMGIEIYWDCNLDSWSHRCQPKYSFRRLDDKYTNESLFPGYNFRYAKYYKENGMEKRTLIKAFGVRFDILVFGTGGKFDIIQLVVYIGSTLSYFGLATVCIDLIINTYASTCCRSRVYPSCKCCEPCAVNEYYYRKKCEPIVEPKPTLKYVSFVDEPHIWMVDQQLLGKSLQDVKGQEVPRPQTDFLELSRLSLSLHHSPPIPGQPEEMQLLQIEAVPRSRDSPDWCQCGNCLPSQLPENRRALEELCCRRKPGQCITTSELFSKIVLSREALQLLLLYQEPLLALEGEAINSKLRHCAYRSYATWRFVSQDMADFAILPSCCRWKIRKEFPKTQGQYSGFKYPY
The test can be described thus: two-electrode voltage clamp, inhibition of ATP-evoked current. The following applies: antagonist; 2 min pre-application, then co-applied with ATP; -70 mV, pH 7.5. In general terms: Two-electrode voltage clamp is typically applied to oocytes expressing channels or transporters.

In test [2] the target is T2, poP2RX7 (Paralichthys olivaceus, UniProt A0A059T2C6).
T2 construct: Xenopus laevis oocytes; homotrimer
The description is as above. The following applies: antagonist; 2 min pre-application, then co-applied with ATP; -70 mV, pH 7.5.

Test [3] deals with T2, poP2RX7. Nature of the test: two-electrode voltage clamp, Xenopus oocytes.
Test [4] addresses T1, rP2RX7. The test can be described thus: two-electrode voltage clamp, Xenopus oocytes.
For test [5], the target named is T2, poP2RX7. The test can be described thus: two-electrode voltage clamp, inhibition of ATP-evoked current. The following applies: antagonist; 2 min pre-application, then co-applied with ATP; -70 mV, pH 7.5. This is another data set of the same source.

SMILES strings stand for the structures.

T2 sequence (A0A059T2C6 entry or part of it): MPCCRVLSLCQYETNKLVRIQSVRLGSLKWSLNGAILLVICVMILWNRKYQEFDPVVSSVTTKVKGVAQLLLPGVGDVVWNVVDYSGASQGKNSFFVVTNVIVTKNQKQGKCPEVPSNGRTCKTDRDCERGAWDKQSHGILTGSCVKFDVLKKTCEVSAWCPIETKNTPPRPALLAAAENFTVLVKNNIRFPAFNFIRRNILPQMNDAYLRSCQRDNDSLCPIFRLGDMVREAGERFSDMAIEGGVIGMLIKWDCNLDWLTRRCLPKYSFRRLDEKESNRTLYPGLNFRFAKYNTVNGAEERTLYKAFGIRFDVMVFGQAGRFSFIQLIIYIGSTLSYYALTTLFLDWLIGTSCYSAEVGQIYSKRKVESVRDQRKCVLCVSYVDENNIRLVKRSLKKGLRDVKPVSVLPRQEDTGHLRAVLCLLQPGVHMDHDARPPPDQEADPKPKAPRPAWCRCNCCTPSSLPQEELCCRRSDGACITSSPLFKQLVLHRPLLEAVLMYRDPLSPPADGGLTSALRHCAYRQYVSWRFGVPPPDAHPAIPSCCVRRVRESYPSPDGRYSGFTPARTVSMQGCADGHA

Consider `CCOc1ccc(Nc2ccc(C(=C3C=CC(=[N+](CC)Cc4cccc(S(=O)(=O)[O-])c4)C=C3C)c3ccc(N(CC)Cc4cccc(S(=O)(=O)O)c4)cc3C)cc2)cc1` [BBG], for which the inhibition result against rP2RX7 [1] is “inhibition induced by BBG or AZ10606120 (AZ) at poP2RX7 (open bars) and rP2RX7”. For the same compound, the “inhibition at 1 μM” value at poP2RX7 [2] was “ATP-evoked currents at poP2RX7 could be inhibited by both of the antagonists”.
As a reminder, the EC50 is the concentration that produces a half-maximal response. A lower EC50 goes with higher potency in that assay. For `Nc1ncnc2c1ncn2[C@@H]1O[C@H](COP(=O)(O)OP(=O)(O)OP(=O)(O)O)[C@@H](OC(=O)c2ccc(C(=O)c3ccccc3)cc2)[C@H]1O` [BzATP], the results for the half-maximal effective concentration (EC50) at poP2RX7 [3] and on rP2RX7 [4] were 743 ± 299 µM and 13.3 ± 1.6 µM, respectively.
For `O=C(CC12CC3CC(CC(C3)C1)C2)Nc1cccc2nc(NCCNCCO)ccc12` [AZ10606120], the inhibition result at rP2RX7 [1] is given as “AZ10606120 was less potent in poP2RX7 than in rP2RX7”. For the same compound, the “inhibition at 20 μM” value on poP2RX7 [5] was “AZ10606120 was less potent in poP2RX7 than in rP2RX7”.
In the case of `Nc1ncnc2c1ncn2[C@@H]1O[C@H](COP(=O)(O)OP(=O)(O)OP(=O)(O)O)[C@@H](O)[C@H]1O` [ATP], the EC50 turned out to be 790 ± 81 µM on poP2RX7 [3] and 376 ± 120 µM on rP2RX7 [4].

(Values after paper PMC4010493, “Molecular Characterization and Expression Analysis of ATP-Gated P2X7 Receptor Involved in Japanese Flounder (Paralichthys olivaceus) Innate Immune Response” (PLoS ONE, 2014).)
